Experimental data published in patent US20250129074A1, “CHIMERIC COMPOUND FOR TARGETED DEGRADATION OF ANDROGEN RECEPTOR PROTEIN, PREPARATION METHOD THEREFOR, AND MEDICAL USE THEREOF” (Jiangsu Hengrui Pharmaceuticals Co., Ltd., priority 2021, published 2025).
pIC50: −log10 of the molar value. Where two headings read alike, the source gives them in different places.

Tests used:
[1] = system: LNCaP cells; assay: Inhibition of LNCaP proliferation (CellTiter-Glo); type: cell-based; details: Homo sapiens, 144 h, 0.1 nM R1881, six days; for Emax: read-out: Max (maximum proliferation inhibition rate)
Description: The plate was incubated in a 37° C., 5% CO2 cell incubator for three days. […] A blank control cell well containing 0.5% DMSO and a cell-free vehicle control well were set up. The plate was incubated in a 37° C., 5% CO2 cell incubator for six days.

[2] = target: T1, androgen receptor (AR) (Homo sapiens, UniProt P10275, T878A); assay: Degradation activity on androgen receptor in LNCaP cells (AR ELISA); type: cell-based; details: for Dmax: read-out: Max (maximum AR degradation rate)
T1 construct: host or cells: LNCaP human prostate cancer cells
T1 sequence (P10275 1-920 T878A): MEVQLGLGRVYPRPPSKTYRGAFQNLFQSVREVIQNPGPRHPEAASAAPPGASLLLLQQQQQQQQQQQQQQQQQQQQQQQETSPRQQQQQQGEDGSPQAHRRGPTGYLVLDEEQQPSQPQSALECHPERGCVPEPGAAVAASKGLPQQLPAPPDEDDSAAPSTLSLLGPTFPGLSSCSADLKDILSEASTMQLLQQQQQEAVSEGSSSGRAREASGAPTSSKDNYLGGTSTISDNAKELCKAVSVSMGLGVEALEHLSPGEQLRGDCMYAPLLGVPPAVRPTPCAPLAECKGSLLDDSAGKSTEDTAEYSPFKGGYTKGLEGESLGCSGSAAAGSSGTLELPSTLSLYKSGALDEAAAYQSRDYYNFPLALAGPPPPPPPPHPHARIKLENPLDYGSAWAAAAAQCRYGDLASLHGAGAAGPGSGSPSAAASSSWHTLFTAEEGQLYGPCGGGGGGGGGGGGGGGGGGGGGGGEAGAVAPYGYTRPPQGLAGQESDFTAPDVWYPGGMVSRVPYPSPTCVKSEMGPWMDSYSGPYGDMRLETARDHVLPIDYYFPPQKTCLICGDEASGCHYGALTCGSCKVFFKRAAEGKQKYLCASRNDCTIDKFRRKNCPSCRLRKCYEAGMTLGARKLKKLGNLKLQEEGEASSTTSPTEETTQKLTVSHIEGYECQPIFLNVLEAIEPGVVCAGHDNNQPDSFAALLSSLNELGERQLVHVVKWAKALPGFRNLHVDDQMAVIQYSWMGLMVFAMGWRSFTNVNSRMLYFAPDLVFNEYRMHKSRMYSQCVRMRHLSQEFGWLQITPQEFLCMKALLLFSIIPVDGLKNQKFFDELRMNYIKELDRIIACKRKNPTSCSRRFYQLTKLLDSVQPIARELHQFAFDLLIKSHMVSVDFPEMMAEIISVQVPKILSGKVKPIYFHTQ
Description: The plate was incubated in a 37° C., 5% CO2 cell incubator for three days. […] A blank control cell well containing 0.5% DMSO was set up. The plate was incubated in a 37° C., 5% CO2 cell incubator for 24 hours. […] The lysate was well mixed by pipetting up and down and then centrifuged at 4000 rpm at 4° C. for 10 minutes. […] The plate was sealed and incubated in a 37° C. incubator for 1 hour. […] The plate was sealed and then incubated in a 37° C. incubator for 30 minutes.

[3] = 0.1 nM R1881, 24 hours, read-out: LNCaP DC50

Structure (SMILES) | pIC50 [1] | Emax [1] | Dmax ([2]; 0.1 nM R1881, 24 hours) | DC50 ([2]; read-out: LNCaP DC50, 0.1 nM R1881, 24 hours) | DC50 [2, 3]
C[C@H]1CC2(CCN(c3ccc(C(=O)N4CCC(CN5CCN(c6cccc(NC7CCC(=O)NC7=O)c6)CC5)CC4)c(F)c3)CC2)CN1c1ccc(C#N)c(Cl)c1 (stereo partly drawn) [Example 16, 2-Chloro-4-((3S)-8-(4-(4-((4-(3-((2,6-dioxopiperidin-3-yl)amino)phenyl)piperazin-1-yl)methyl)piperidine-1-carbonyl)-3-fluorophenyl)-3-methyl-2,8-diazaspiro[4.5]decan-2-yl)benzonitrile] | 7.08 | 70% | 97% | 3.9 nM | –
C[C@H]1CC2(CCN(c3ccc(C(=O)N4CCC(CN5CCN(c6cc(NC7CCC(=O)NC7=O)ccn6)CC5)CC4)cc3)CC2)CN1c1ccc(C#N)c(Cl)c1 (stereo partly drawn) [Example 24, 2-Chloro-4-((3S)-8-(4-(4-((4-(4-((2,6-dioxopiperidin-3-yl)amino)pyridin-2-yl)piperazin-1-yl)methyl)piperidine-1-carbonyl)phenyl)-3-methyl-2,8-diazaspiro[4.5]decan-2-yl)benzonitrile] | 6.18 | 54% | 94% | – | 9.1 nM
C[C@H]1CC2(CCN(c3ccc(C(=O)N4CCC(N5CCN(c6cccc(NC7CCC(=O)NC7=O)c6)CC5)CC4)cc3)CC2)CN1c1ccc(C#N)c(Cl)c1 (stereo partly drawn) [Example 10, 2-Chloro-4-((3S)-8-(4-(4-(4-(3-((2,6-dioxopiperidin-3-yl)amino)phenyl)piperazin-1-yl)piperidine-1-carbonyl)phenyl)-3-methyl-2,8-diazaspiro[4.5]decan-2-yl)benzonitrile] | 7.03 | 70% | 97% | – | 2.5 nM
C[C@H]1CC2(CCN(c3ccc(C(=O)N4CCC(N5CC(N6CCN(c7ccc(N8CCC(=O)NC8=O)cc7)CC6)C5)CC4)cc3)CC2)CN1c1ccc(C#N)c(Cl)c1 [Example 7, (S)-2-Chloro-4-(8-(4-(4-(3-(4-(4-(2,4-dioxotetrahydropyrimidin-1(2H)-yl)phenyl)piperazin-1-yl)azetidin-1-yl)piperidine-1-carbonyl)phenyl)-3-methyl-2,8-diazaspiro[4.5]decan-2-yl)benzonitrile] | 8.34 | 53% | 93% | – | 1 nM
C[C@H]1CC2(CCN(c3ccc(C(=O)N4CC(CN5CCC(c6cccc(NC7CCC(=O)NC7=O)c6)CC5)C4)nn3)CC2)CN1c1ccc(C#N)c(Cl)c1 (stereo partly drawn) [Example 21, 2-Chloro-4-((3S)-8-(6-(3-((4-(3-((2,6-dioxopiperidin-3-yl)amino)phenyl)piperidin-1-yl)methyl)azetidine-1-carbonyl)pyridazin-3-yl)-3-methyl-2,8-diazaspiro[4.5]decan-2-yl)benzonitrile] | 7.80 | 60% | 94% | – | 0.5 nM
C[C@H]1CC2(CCN(c3ccc(C(=O)N4CCC(CN5CCC(N6CCN(c7ccc(N8CCC(=O)NC8=O)cc7)CC6)CC5)CC4)cc3)CC2)CN1c1ccc(C#N)c(Cl)c1 [Example 9, (S)-2-Chloro-4-(8-(4-(4-((4-(4-(4-(2,4-dioxotetrahydropyrimidin-1(2H)-yl)phenyl)piperazin-1-yl)piperidin-1-yl)methyl)piperidine-1-carbonyl)phenyl)-3-methyl-2,8-diazaspiro[4.5]decan-2-yl)benzonitrile] | 7.16 | 59% | 92% | – | 12.9 nM
C[C@H]1CC2(CCN(c3ccc(C(=O)N4CCC5(CC4)CC(N4CCN(c6ccc(N7CCC(=O)NC7=O)cc6)CC4)C5)cn3)CC2)CN1c1ccc(C#N)c(Cl)c1 [Example 33, (S)-2-Chloro-4-(8-(5-(2-(4-(4-(2,4-dioxotetrahydropyrimidin-1(2H)-yl)phenyl)piperazin-1-yl)-7-azaspiro[3.5]nonane-7-carbonyl)pyridin-2-yl)-3-methyl-2,8-diazaspiro[4.5]decan-2-yl]benzonitrile] | 8.46 | 58% | 95% | – | 2.5 nM
C[C@H]1CC2(CCN(c3ccc(C(=O)N4CCC(CN5CCN(c6ccc(NC7CCC(=O)NC7=O)cc6)CC5)CC4)cc3)CC2)CN1c1ccc(C#N)c(Cl)c1 (stereo partly drawn) [Example 25, 2-Chloro-4-((3S)-8-(4-(4-((4-(4-((2,6-dioxopiperidin-3-yl)amino)phenyl)piperazin-1-yl)methyl)piperidine-1-carbonyl)phenyl)-3-methyl-2,8-diazaspiro[4.5]decan-2-yl)benzonitrile] | 7.62 | 60% | 96% | – | 1.8 nM
C[C@H]1CC2(CCN(c3ccc(C(=O)N4CCN(CC5CCN(c6cccc(NC7CCC(=O)NC7=O)c6)CC5)CC4)cc3)CC2)CN1c1ccc(C#N)c(Cl)c1 (stereo partly drawn) [Example 37, 2-Chloro-4-((3S)-8-(4-(4-((1-(3-((2,6-dioxopiperidin-3-yl)amino)phenyl)piperidin-4-yl)methyl)piperazine-1-carbonyl)phenyl)-3-methyl-2,8-diazaspiro[4.5]decan-2-yl)benzonitrile] | 6.90 | 73% | 97% | – | 7.6 nM
C[C@H]1CC2(CCN(c3ccc(C(=O)N4CCC5(CC4)CC(N4CCN(c6ccc(N7CCC(=O)NC7=O)cc6)CC4)C5)c(F)c3)CC2)CN1c1ccc(C#N)c(Cl)c1 [Example 31, (S)-2-Chloro-4-(8-(4-(2-(4-(4-(2,4-dioxotetrahydropyrimidin-1(2H)-yl)phenyl)piperazin-1-yl)-7-azaspiro[3.5]nonane-7-carbonyl)-3-fluorophenyl)-3-methyl-2,8-diazaspiro[4.5]decan-2-yl)benzonitrile] | 7.92 | 57% | 94% | – | 8.7 nM
C[C@H]1CC2(CCN(c3ccc(C(=O)N4CCC(CN5CCN(c6ccc(C(=O)NC7CCC(=O)NC7=O)cc6)CC5)CC4)cc3)CC2)CN1c1ccc(C#N)c(Cl)c1 (stereo partly drawn) [Example 43, 4-(4-((1-(4-((S)-2-(3-Chloro-4-cyanophenyl)-3-methyl-2,8-diazaspiro[4.5]decan-8-yl)benzoyl)piperidin-4-yl)methyl)piperazin-1-yl)-N-(2,6-dioxopiperidin-3-yl)benzamide] | – | – | 92% | – | 9.3 nM
C[C@H]1CC2(CCN(c3ccc(C(=O)N4CCC(CN5CCN(c6ccccc6NC6CCC(=O)NC6=O)CC5)CC4)cc3)CC2)CN1c1ccc(C#N)c(Cl)c1 (stereo partly drawn) [Example 39, 2-Chloro-4-((3S)-8-(4-(4-((4-(2-((2,6-dioxopiperidin-3-yl)amino)phenyl)piperazin-1-yl)methyl)piperidine-1-carbonyl)phenyl)-3-methyl-2,8-diazaspiro[4.5]decan-2-yl)benzonitrile] | – | – | 86% | – | 13.9 nM
C[C@H]1CC2(CCN(c3ccc(C(=O)N4CC(CN5CCN(c6cccc(NC7CCC(=O)NC7=O)c6)CC5)C4)nn3)CC2)CN1c1ccc(C#N)c(Cl)c1 (stereo partly drawn) [Example 22, 2-Chloro-4-((3S)-8-(6-(3-((4-(3-((2,6-dioxopiperidin-3-yl)amino)phenyl)piperazin-1-yl)methyl)azetidine-1-carbonyl)pyridazin-3-yl)-3-methyl-2,8-diazaspiro[4.5]decan-2-yl)benzonitrile] | – | – | 97% | – | 0.4 nM
